In patent US11780868B1, “Homoleptic metal coordination complexes as antifungal agents” (King Abdulaziz University, priority 2023, dated 2023):

Experiments:
Assay in all cases: Broth microdilution MIC/MFC (CLSI M27-A4)
Format in all cases: cell-based, Candida albicans
[1] = tested on: C. albicans 4175; details: C. albicans 4175 (Flz sensitive)
Experimental: (§1) In this work, nine strains of C. albicans procured from Charlotte Maxeke Johannesburg Academic Hospital under ethical clearance number M000402 were employed (Table 1). All the C. albicans strains were preserved at −70° C. deep freezer in 50% (v/v) anhydrous glycerol (Sigma-Aldrich St. Louis, MO, U.S.A.). For conducting experiments, cultures were revived in Sabouraud Dextrose broth (SDB; Merck, Germany) at 37° C. and 120 rpm for 24 h. Additionally, the RPMI 1640 medium and MOPS (Sigma-Aldrich, USA) were prepared as described by the Clinical and Laboratory Standards Institute (CLSI).
(§2) The activity of C1 against Candida species (n=9) was first estimated in terms of minimum inhibitory concentration (MIC) and minimum fungicidal concentration (MFC). […] Briefly, stock solutions of Flz (used as reference; Sigma-Aldrich St. Louis, MO, U.S.A.) and the synthesized compound was prepared in 1% dimethyl sulfoxide (DMSO; Sigma-Aldrich St. Louis, MO, U.S.A.) and the test concentrations were formulated in RPMI 1640-MOPS medium. A two-fold dilution of the compound (1250-0.61 μg/mL) and reference drug (128-0.062 μg/mL) was prepared in 96 well plates which were then seeded with C. albicans inoculum (1×10^6 cells/mL) and incubated at 37° C. for 24 h. In every set of experiments, sterility control, 1% DMSO as negative control and growth control were included. Growth was quantified by reading the optical density at 620 nm in a UV-1800 SHIMADZU spectrophotometer (Shimadzu Corporation, Japan). The MIC was determined as the lowest concentration that inhibited the growth of Candida strains. To determine MFC, each well without visible growth was subcultured onto the SDA plates for 24 hours at 37° C. The lowest concentration killing ≥99.9% of Candida was taken as the MFC value of the test compound.

[2] = tested on: C. albicans SC5314; details: C. albicans SC5314 (control)
Experimental: as §1, §2

[3] = tested on: C. albicans 4180; details: C. albicans 4180 (Flz sensitive)
Experimental: as §1, §2

[4] = tested on: C. albicans 4106; details: C. albicans 4106 (Flz resistant)
Experimental: as §1, §2

[5] = tested on: C. albicans 4251; details: C. albicans 4251 (Flz sensitive)
Experimental: as §1, §2

[6] = tested on: C. albicans 4324; details: C. albicans 4324 (Flz resistant)
Experimental: as §1, §2

[7] = tested on: C. albicans 5112; details: C. albicans 5112 (Flz resistant)
Experimental: as §1, §2

[8] = tested on: C. albicans 4554; details: C. albicans 4554 (Flz sensitive)
Experimental: as §1, §2

[9] = tested on: C. albicans 4085; details: C. albicans 4085 (Flz resistant)
Experimental: as §1, §2

## Brc1ccc([O][Co][O]c2ccc(Br)cc2C=Nc2ccc3c(c2)OCCO3)c(C=Nc2ccc3c(c2)OCCO3)c1 [Complex C1, [Co(L)2]]
[1]; 37° C., 24 h
  Median MIC: 1.22 µg/mL
[1]; killing ≥99.9%
  Median MFC: 2.44 µg/mL
[2]; 37° C., 24 h
  Median MIC: 2.44 µg/mL
[2]; killing ≥99.9%
  Median MFC: 4.88 µg/mL
[3]; 37° C., 24 h
  Median MIC: 2.44 µg/mL
[3]; killing ≥99.9%
  Median MFC: 4.88 µg/mL
[4]; 37° C., 24 h
  Median MIC: 9.76 µg/mL
[4]; killing ≥99.9%
  Median MFC: 19.53 µg/mL
[5]; 37° C., 24 h
  Median MIC: 4.88 µg/mL
[5]; killing ≥99.9%
  Median MFC: 9.76 µg/mL
[6]; 37° C., 24 h
  Median MIC: 9.76 µg/mL
[6]; killing ≥99.9%
  Median MFC: 19.53 µg/mL
[7]; 37° C., 24 h
  Median MIC: 19.53 µg/mL
[7]; killing ≥99.9%
  Median MFC: 78.12 µg/mL
[8]; 37° C., 24 h
  Median MIC: 2.44 µg/mL
[8]; killing ≥99.9%
  Median MFC: 4.88 µg/mL
[9]; 37° C., 24 h
  Median MIC: 9.76 µg/mL
[9]; killing ≥99.9%
  Median MFC: 19.53 µg/mL
